Results: PubChem BioAssay (NCI)
“And” between values parts separate entries of the source, which are not always exact repeats. Equal entries are not always repeated.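 All cell lines were grown in 96-well plates and treated with compound for 48 hours. At the GI50, growth is halved. The concentration for full growth arrest is given as TGI.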

Legend:
Experiment in all cases: growth of human tumour cells (NCI), 48 h
[1] = system: SK-MEL-28 melanoma
[2] = system: LOX IMVI melanoma
[3] = system: CAKI-1 renal
[4] = system: EKVX NSCLC
[5] = system: HCC-2998 colon
[6] = system: HL-60(TB) leukemia
[7] = system: SW-620 colon
[8] = system: SF-268 CNS
[9] = system: SK-OV-3 ovarian
[10] = system: MOLT-4 leukemia

## COc1ccc2c(c1)C(CCN)C(=O)N2 (centres undefined)
[1]
  TGI: > 100 µM
[2]
  TGI: > 100 µM
[3]
  TGI: > 100 µM
[4]
  TGI: > 100 µM
[5]
  TGI: > 100 µM
[6]
  TGI: > 100 µM
[7]
  TGI: > 100 µM
[8]
  TGI: > 100 µM
[9]
  TGI: > 100 µM
[10]
  TGI: > 100 µM

## O=C(O)/C=C/C(=O)Nc1cccc2c1-c1ccccc1C2=O
[1]
  TGI: > 100 µM
[2]
  TGI: > 100 µM
[3]
  TGI: > 100 µM
[4]
  TGI: > 100 µM
[5]
  TGI: 71.8 µM
[6]
  TGI: 6.9 µM
[7]
  TGI: > 100 µM
[8]
  TGI: > 100 µM
[9]
  TGI: > 100 µM
[10]
  TGI: > 100 µM

## O=c1cc(N2CCOCC2)oc2c(-c3ccccc3)cccc12
[1]
  GI50: 6.57 µM
  TGI: > 100 µM
[2]
  GI50: 4.34 µM
  TGI: > 68.3 µM and 18.4 µM
[3]
  TGI: 28.9 µM and 9.16 µM
[4]
  GI50: 5.22 µM
  TGI: > 71 µM and 23.2 µM
[5]
  GI50: 5.61 µM
  TGI: 46.9 µM
[6]
  GI50: 3.38 µM
  TGI: 38.2 µM and > 100 µM
[7]
  GI50: 15.5 µM
  TGI: > 100 µM
[8]
  GI50: 3.59 µM
  TGI: 53 µM and 14.2 µM
[9]
  GI50: 6.92 µM
  TGI: 62.4 µM and 60.9 µM
[10]
  GI50: 5.46 µM
  TGI: > 100 µM and 92.8 µM

## O=C(CCCCCCCCC(=O)OCCCn1cc(C(=O)NC(=O)OCc2ccccc2)c(=O)[nH]c1=O)OCCCn1cc(C(=O)NC(=O)OCc2ccccc2)c(=O)[nH]c1=O
[1]
  TGI: > 100 µM
[2]
  TGI: > 100 µM
[3]
  TGI: > 100 µM
[4]
  TGI: > 100 µM
[5]
  TGI: > 100 µM
[6]
  TGI: > 100 µM
[7]
  TGI: > 100 µM
[8]
  TGI: > 100 µM
[9]
  TGI: > 100 µM
[10]
  TGI: > 100 µM

## Cn1c(=O)c2[nH]c(Nc3ccccc3)nc2n(C)c1=O
[1]
  TGI: > 10 µM
[2]
  TGI: > 10 µM
[3]
  TGI: > 10 µM
[4]
  TGI: > 10 µM
[5]
  TGI: > 10 µM
[6]
  TGI: > 10 µM
[7]
  TGI: > 10 µM
[8]
  TGI: > 10 µM
[9]
  TGI: > 10 µM
[10]
  TGI: > 10 µM

## Nc1ncnc2c1ncn2C1OC(CO)C(O)C1O (centres undefined)
[1]
  GI50: > 100 µM and 313 µM and 62.3 µM
  TGI: > 450 µM
[2]
  GI50: 5.73 µM
  TGI: > 450 µM
[3]
  TGI: > 100 µM and > 450 µM and 74.9 µM
[4]
  GI50: > 100 µM and 48.3 µM and 17 µM
  TGI: > 100 µM and 152 µM and > 84.3 µM
[5]
  GI50: 1.61 µM
[6]
  GI50: 22.9 µM and 105 µM and 13.8 µM
  TGI: > 100 µM and 328 µM and 56 µM
[7]
  GI50: 19.3 µM
  TGI: > 450 µM
[8]
  GI50: 38.7 µM
  TGI: > 450 µM
[9]
  GI50: > 100 µM and 296 µM and 34 µM
  TGI: > 450 µM
[10]
  GI50: > 100 µM and 201 µM
  TGI: > 450 µM

## Nc1ccc(Cl)cc1.Nc1ccc(Cl)cc1.Nc1ccc(Cl)cc1.O=C([O-])C(=O)[O-].O=C([O-])C(=O)[O-].[H+].[Ru+5]
[1]
  TGI: > 100 µM
[2]
  GI50: > 100 µM
  TGI: > 100 µM
[3]
  TGI: > 100 µM
[4]
  GI50: 8.15 µM
  TGI: > 100 µM
[5]
  GI50: 0.439 µM
[6]
  GI50: 0.104 µM
  TGI: > 87.8 µM
[7]
  GI50: 0.187 µM
  TGI: > 100 µM
[8]
  GI50: > 100 µM
  TGI: > 100 µM
[9]
  GI50: > 100 µM
  TGI: > 100 µM
[10]
  GI50: 1.2 µM
  TGI: > 100 µM

## O=C(O)C(=O)/C=C\c1ccc(Cl)cc1
[1]
  TGI: > 100 µM
[2]
  TGI: > 100 µM
[3]
  TGI: > 100 µM
[4]
  TGI: > 100 µM
[5]
  TGI: > 100 µM
[6]
  TGI: > 100 µM
[7]
  TGI: 27 µM
[8]
  TGI: > 100 µM
[9]
  TGI: > 100 µM
[10]
  TGI: > 100 µM

## COc1ccc(CNCCN2C(=O)c3ccc4c5c(ccc(c35)C2=O)C(=O)N(CCNCc2ccc(OC)cc2)C4=O)cc1
[1]
  GI50: 1.21 µM
  TGI: 2.56 µM
[2]
  GI50: 0.195 µM
  TGI: 0.583 µM
[3]
  GI50: 1.04 µM
  TGI: 3.38 µM
[4]
  GI50: 0.455 µM
  TGI: 1.73 µM
[5]
  GI50: 0.304 µM
  TGI: 1.05 µM
[6]
  GI50: 0.311 µM
  TGI: 0.858 µM
[7]
  GI50: 0.168 µM
  TGI: 0.506 µM
[8]
  GI50: 0.284 µM
  TGI: 1.17 µM
[9]
  GI50: 1.13 µM
  TGI: 2.37 µM
[10]
  GI50: 0.282 µM
  TGI: 0.92 µM

## CCCCCCCC(=O)SCC/C=C/[C@@H]1CC(=O)NCc2cccc(n2)CN(Cc2ccc(Cl)cc2)CC(=O)N[C@@H](C(C)C)C(=O)O1
[1]
  GI50: 5.04 µM
  TGI: > 100 µM
[2]
  GI50: 5.33 µM
  TGI: 19.6 µM
[3]
  GI50: 28 µM
  TGI: > 100 µM
[4]
  GI50: 17.8 µM
  TGI: > 100 µM
[5]
  GI50: 13.8 µM
  TGI: 43.7 µM
[6]
  GI50: 23.1 µM
  TGI: > 100 µM
[7]
  GI50: 18 µM
  TGI: > 100 µM
[8]
  GI50: 20 µM
  TGI: > 100 µM
[9]
  GI50: 6.41 µM
  TGI: 42.7 µM
[10]
  GI50: 3.21 µM
  TGI: > 100 µM

## COC(=O)c1ccc2n[se]nc2c1
[1]
  TGI: > 100 µM
[2]
  TGI: > 100 µM
[3]
  TGI: > 100 µM
[4]
  TGI: > 100 µM
[5]
  TGI: > 100 µM
[6]
  TGI: > 100 µM
[7]
  TGI: > 100 µM
[8]
  TGI: > 100 µM
[9]
  TGI: > 100 µM
[10]
  TGI: > 100 µM
